In PubChem BioAssay AID330 (DTP/NCI, 2004):
Values joined by “and” are separate entries in the source; they are usually repeats but may differ in a detail not shown here. Equal values may be shown once. Toxic doses and inconclusive results are not listed. The calls were made as follows: active = survival T/C of 150% or more; inactive = T/C below 125% in these data.

System: P388 leukemia ip, CD2F1 mice, survival T/C
Assay: NCI In Vivo Anticancer Drug Screen. Data for tumor model P388 Leukemia (intraperitoneal) in CD2F1 (CDF1) mice
Details: endpoint: median survival time, higher = longer survival
In short: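 Mice carrying the transplanted tumor received test compound or vehicle. Survival was recorded in each group, and the value is the treated-group measurement divided by that of the vehicle-treated control group.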

[1] = dose: 50.0 mg/kg/injection, schedule: Q01DX005 (ip), vehicle: saline with Tween-80
[2] = dose: 100.0 mg/kg/injection, schedule: Q01DX005 (ip), vehicle: saline with Tween-80
[3] = dose: 2.5 mg/kg/injection, schedule: Q01DX009 (ip), vehicle: saline with Tween-80
[4] = dose: 5.0 mg/kg/injection, schedule: Q01DX009 (ip), vehicle: saline with Tween-80
[5] = dose: 100.0 mg/kg/injection, schedule: Q01DX001 (ip), vehicle: saline with Tween-80
[6] = dose: 200.0 mg/kg/injection, schedule: Q01DX005 (ip), vehicle: saline with Tween-80
[7] = dose: 12.5 mg/kg/injection, schedule: Q04DX003 (ip), vehicle: distilled water + Tween-80
[8] = dose: 100.0 mg/kg/injection, schedule: Q04DX002 (ip), vehicle: saline with Tween-80
[9] = dose: 200.0 mg/kg/injection, schedule: Q04DX002 (ip), vehicle: saline with Tween-80
[10] = dose: 50.0 mg/kg/injection, schedule: Q01DX005 (ip), vehicle: Klucel (hydroxypropylcellulose) (HPC)
[11] = dose: 60.0 mg/kg/injection, schedule: Q01DX005 (ip), vehicle: saline with Tween-80
[12] = dose: 120.0 mg/kg/injection, schedule: Q01DX005 (ip), vehicle: saline with Tween-80
[13] = dose: 240.0 mg/kg/injection, schedule: Q01DX005 (ip), vehicle: saline with Tween-80

Measured: T/C

CCCCOB(CI)OCCCC
inactive: dose: 6.25 mg/kg/injection, schedule: Q04DX003 (ip), vehicle: saline 110 % of control | dose: 12.5 mg/kg/injection, schedule: Q04DX003 (ip), vehicle: saline 100 % of control | dose: 25.0 mg/kg/injection, schedule: Q04DX003 (ip), vehicle: saline 110 % of control

CCOc1cc(/C=N/NC(=O)N(c2ccccc2)c2ccccc2)ccc1O
inactive: [1] 88 % of control | [2] 88 % of control

CC(=O)c1ccc2oc(C(C)=O)cc2c1
inactive: [3] 97 % of control | [4] 96 % of control

COC1=C(C)C(=O)c2[nH]c(Cl)c(C=O)c2C1=O
inactive: [5] 99 % of control | dose: 200.0 mg/kg/injection, schedule: Q01DX001 (ip), vehicle: saline with Tween-80 95 % of control

CC1([CH2][Hg][Cl])Cc2ccccc2O1 (configuration not stated)
inactive: dose: 0.78 mg/kg/injection, schedule: Q01DX009 (ip), vehicle: saline with Tween-80 91 % of control | dose: 1.56 mg/kg/injection, schedule: Q01DX009 (ip), vehicle: saline with Tween-80 95 % of control | dose: 3.13 mg/kg/injection, schedule: Q01DX009 (ip), vehicle: saline with Tween-80 86 % of control

[N-]=[N+]=Nc1ccc(C(=O)ON2C(=O)CCC2=O)cc1
inactive: [1] 97 % of control | [2] 105 % of control | [6] 119 % of control

CCOC(=O)C1=C(O)C(=O)NC1c1ccccc1 (configuration not stated)
inactive: dose: 15.0 mg/kg/injection, schedule: Q01DX005 (ip), vehicle: Klucel (hydroxypropylcellulose) (HPC) 111 % of control | dose: 30.0 mg/kg/injection, schedule: Q01DX005 (ip), vehicle: Klucel (hydroxypropylcellulose) (HPC) 102 % of control | dose: 60.0 mg/kg/injection, schedule: Q01DX005 (ip), vehicle: Klucel (hydroxypropylcellulose) (HPC) 102 % of control and 107 % of control

Cc1nnc2sc(/C=C/c3ccccc3)nn12
inactive: dose: 100.0 mg/kg/injection, schedule: Q01DX001 (ip), vehicle: Klucel (hydroxypropylcellulose) (HPC) 101 % of control | dose: 200.0 mg/kg/injection, schedule: Q01DX001 (ip), vehicle: Klucel (hydroxypropylcellulose) (HPC) 102 % of control | dose: 400.0 mg/kg/injection, schedule: Q01DX001 (ip), vehicle: Klucel (hydroxypropylcellulose) (HPC) 101 % of control

Cc1nn(C(=O)c2ccncc2)c(C)c1N=Nc1ccccc1Cl
inactive: dose: 100.0 mg/kg/injection, schedule: Q04DX003 (ip), vehicle: Klucel (hydroxypropylcellulose) (HPC) 96 % of control | dose: 200.0 mg/kg/injection, schedule: Q04DX003 (ip), vehicle: Klucel (hydroxypropylcellulose) (HPC) 95 % of control | dose: 400.0 mg/kg/injection, schedule: Q04DX003 (ip), vehicle: Klucel (hydroxypropylcellulose) (HPC) 97 % of control

CC[C@@]1(O)C[C@H](OC2CCC(OC3CC(OC(C)=O)C(OC(C)=O)C(C)O3)C(C)O2)c2c(O)c3c(c(O)c2[C@H]1C(=O)OC)C(=O)c1cccc(O)c1C3=O (some centres not stated)
inactive: dose: 3.13 mg/kg/injection, schedule: Q04DX003 (ip), vehicle: distilled water + Tween-80 100 % of control | dose: 6.25 mg/kg/injection, schedule: Q04DX003 (ip), vehicle: distilled water + Tween-80 100 % of control | [7] 101 % of control | dose: 25.0 mg/kg/injection, schedule: Q04DX003 (ip), vehicle: distilled water + Tween-80 105 % of control | dose: 50.0 mg/kg/injection, schedule: Q04DX003 (ip), vehicle: distilled water + Tween-80 103 % of control

O=C1c2ccccc2C(=O)c2c(Nc3cccc(S(=O)(=O)N(CCO)CCO)c3)ccc(O)c21
inactive: dose: 25.0 mg/kg/injection, schedule: Q04DX002 (ip), vehicle: saline with Tween-80 99 % of control | dose: 50.0 mg/kg/injection, schedule: Q04DX002 (ip), vehicle: saline with Tween-80 93 % of control | [8] 92 % of control | [9] 93 % of control

CC(=O)[C@]1(O)Cc2c(O)c3c(c(O)c2[C@@H](OC2CC(N)C(O)C(C)O2)C1)C(=O)c1c(OCc2ccccc2)cccc1C3=O (some centres not stated)
inactive: [7] 101 % of control | dose: 100.0 mg/kg/injection, schedule: Q04DX003 (ip), vehicle: distilled water + Tween-80 91 % of control

COc1cc(C)c2[nH]c3c(C)c(Cl)ccc3c(=O)c2c1
inactive: dose: 50.0 mg/kg/injection, schedule: Q01DX005 (ip), vehicle: Klucel + Tween-80 97 % of control | dose: 100.0 mg/kg/injection, schedule: Q01DX005 (ip), vehicle: Klucel + Tween-80 93 % of control | dose: 200.0 mg/kg/injection, schedule: Q01DX005 (ip), vehicle: Klucel + Tween-80 96 % of control

N#Cc1[nH]ncc1[N+](=O)[O-]
inactive: dose: 25.0 mg/kg/injection, schedule: Q01DX001 (ip), vehicle: saline with Tween-80 100 % of control | dose: 50.0 mg/kg/injection, schedule: Q01DX001 (ip), vehicle: saline with Tween-80 106 % of control | [5] 101 % of control

CN1c2ccccc2C(=O)Nc2cnc(Cl)nc21
inactive: dose: 25.0 mg/kg/injection, schedule: Q01DX005 (ip), vehicle: Klucel (hydroxypropylcellulose) (HPC) 94 % of control | [10] 108 % of control

COc1cc2c(cc1OC)[C@H](c1cc(OC)c3c(c1)OCO3)[C@H]1C(=O)OCC1C2 (some centres not stated)
inactive: dose: 15.0 mg/kg/injection, schedule: Q01DX005 (ip), vehicle: saline with Tween-80 89 % of control | dose: 30.0 mg/kg/injection, schedule: Q01DX005 (ip), vehicle: saline with Tween-80 88 % of control | [11] 90 % of control and 92 % of control | [12] 98 % of control | [13] 99 % of control

COc1cc(OC)c(C/C=C/c2ccccc2)cc1O
inactive: [3] 100 % of control | [4] 100 % of control | dose: 10.0 mg/kg/injection, schedule: Q01DX009 (ip), vehicle: saline with Tween-80 102 % of control

COc1cccc(C(=O)NC(=O)NC(=O)c2ccccc2)c1
inactive: [8] 100 % of control | [9] 93 % of control | dose: 400.0 mg/kg/injection, schedule: Q04DX002 (ip), vehicle: saline with Tween-80 93 % of control

O=C1CSC(c2cccs2)N1c1nccs1 (configuration not stated)
inactive: [10] 102 % of control | dose: 100.0 mg/kg/injection, schedule: Q01DX005 (ip), vehicle: Klucel (hydroxypropylcellulose) (HPC) 106 % of control | dose: 200.0 mg/kg/injection, schedule: Q01DX005 (ip), vehicle: Klucel (hydroxypropylcellulose) (HPC) 100 % of control

CC(=O)NCC[N+](C)(C)C
inactive: dose: 12.5 mg/kg/injection, schedule: Q01DX009 (ip), vehicle: saline 100 % of control | dose: 25.0 mg/kg/injection, schedule: Q01DX009 (ip), vehicle: saline 108 % of control | dose: 50.0 mg/kg/injection, schedule: Q01DX009 (ip), vehicle: saline 99 % of control

CC1(C)OC(C(F)(F)F)(C(F)(F)F)c2cc(C(C)(C)C)ccc2S1
inactive: [11] 98 % of control | [12] 98 % of control | [13] 102 % of control

CN(C)c1ccc(/C=C2/SC(=S)NC2=O)cc1
inactive: dose: 25.0 mg/kg/injection, schedule: Q01DX005 (ip), vehicle: saline with Tween-80 93 % of control | [1] 90 % of control | [2] 87 % of control

Cc1cccc(Nc2nnc(Nc3cccc(C)n3)c3ccccc23)n1
inactive: [1] 95 % of control | [2] 91 % of control | [6] 92 % of control

c1ccc(N=C2N=c3ccccc3=C2c2c(Nc3ccccc3)[nH]c3ccccc23)cc1
inactive: [1] 89 % of control | [2] 90 % of control | [6] 92 % of control
